Reference: article PMC4965013, “Open Source Drug Discovery with the Malaria Box Compound Collection for Neglected Diseases and Beyond” (PLoS Pathogens, 2016)

Legend:
P. falciparum = experiment: EC50 listed in S2 Table Metabolomics (used to set the concentration tested); assay type: cell-based; conditions: Plasmodium falciparum; EC50 used for Factor_XEC50 in metabolomics; read-out: EC50_nM
[1] = test system: P. falciparum 3D7 trophozoites; experiment: Metabolomic fingerprint profiling LC-MS; assay type: cell-based, Plasmodium falciparum; set-up: UDP-D-glucose / ADP-D-glucose: unit not given here; conditions: for Acetyllysine / N-acetyl-L-ornithine / N-carbamoyl-L-aspartate / NADPH / dAMP / dCMP / dTDP / dTMP / dTTP / dihydroorotate / orotate / DLH / DLS/SDL/SID / PD / PEE / PVNF / 3-phosphoglycerate / ADP-D-glucose / ATP / CDP / D-sedoheptulose-1/7-phosphate / FAD / GMP / NAD+ / NADP+ / Octoluse Bisphosphate / Pyroglutamic acid / UDP-D-glucose / UDP-D-glucuronate / UDP-N-acetyl-glucosamine / UDP / UMP / UTP / a-ketoglutarate / citrate/isocitrate / cytidine / dATP / dGMP/AMP / fumarate / glucose-1/6-phosphate / glycerate / guanine / guanosine / hypoxanthine / indole / inosine / nicotinate / ornithine / phosphoenolpyruvate / pyruvate / ribose-phosphate / sarcosine/alanine / sn-glycerol-3-phosphate / succinate/methylmalonic acid / uridine / xanthosine: S2 Table Metabolomics; for Acetyllysine: metabolite Acetyllysine; for N-acetyl-L-ornithine: metabolite N-acetyl-L-ornithine; for N-carbamoyl-L-aspartate: metabolite N-carbamoyl-L-aspartate; for NADPH: metabolite NADPH; for dAMP: metabolite dAMP; for dCMP: metabolite dCMP; for dTDP: metabolite dTDP; for dTMP: metabolite dTMP; for dTTP: metabolite dTTP; for dihydroorotate: metabolite dihydroorotate; for orotate: metabolite orotate; for DLH: peptide DLH; for DLS/SDL/SID: peptide DLS/SDL/SID; for PD: peptide PD; for PEE: peptide PEE; for PVNF: peptide PVNF; for 3-phosphoglycerate: metabolite 3-phosphoglycerate; for ADP-D-glucose: metabolite ADP-D-glucose; for ATP: metabolite ATP; for CDP: metabolite CDP; for CDP / D-sedoheptulose-1/7-phosphate / GMP / Octoluse Bisphosphate / UDP / UMP / UTP / citrate/isocitrate / dGMP/AMP / fumarate / glucose-1/6-phosphate / glycerate / guanine / guanosine / inosine / pyruvate / sarcosine/alanine / succinate/methylmalonic acid / uridine / xanthosine: change in metabolite level after compound treatment; for D-sedoheptulose-1/7-phosphate: metabolite D-sedoheptulose-1/7-phosphate; for FAD: metabolite FAD; for GMP: metabolite GMP; for NAD+: metabolite NAD+; for NADP+: metabolite NADP+; for Octoluse Bisphosphate: metabolite Octoluse Bisphosphate; for Pyroglutamic acid: metabolite Pyroglutamic acid; for UDP-D-glucose: metabolite UDP-D-glucose; for UDP-D-glucuronate: metabolite UDP-D-glucuronate; for UDP-N-acetyl-glucosamine: metabolite UDP-N-acetyl-glucosamine; for UDP: metabolite UDP; for UMP: metabolite UMP; for UTP: metabolite UTP; for a-ketoglutarate: metabolite a-ketoglutarate; for citrate/isocitrate: metabolite citrate/isocitrate; for cytidine: metabolite cytidine; for dATP: metabolite dATP; for dGMP/AMP: metabolite dGMP/AMP; for fumarate: metabolite fumarate; for glucose-1/6-phosphate: metabolite glucose-1/6-phosphate; for glycerate: metabolite glycerate; for guanine: metabolite guanine; for guanosine: metabolite guanosine; for hypoxanthine: metabolite hypoxanthine; for indole: metabolite indole; for inosine: metabolite inosine; for 2_3-Diphosphoglyceric acid / 4-phosphopantothenate / 6-phospho-D-gluconate / FMN / IMP / Pyrophosphate / Sedoheptoluse bisphosphate / cyclic-AMP / glutathione disulfide / lactate / myo-inositol: metabolite level change after treatment; for nicotinate: metabolite nicotinate; for ornithine: metabolite ornithine; for phosphoenolpyruvate: metabolite phosphoenolpyruvate; for pyruvate: metabolite pyruvate; for ribose-phosphate: metabolite ribose-phosphate; for sarcosine/alanine: metabolite sarcosine/alanine; for sn-glycerol-3-phosphate: metabolite sn-glycerol-3-phosphate; for succinate/methylmalonic acid: metabolite succinate/methylmalonic acid; for uridine: metabolite uridine; for xanthosine: metabolite xanthosine

CSC1=NC(=Nc2c(C)cccc2C)C2(CCC(C(C)(C)C)CC2)N1c1ccc(Cl)cc1 (stereo not shown) [MMV666596] gave an EC50 (P. falciparum) of 135 nM, an Acetyllysine [1] of 0.05532 and a N-acetyl-L-ornithine [1] of 0.3033. It also gave a N-carbamoyl-L-aspartate [1] of 4.209, an NADPH [1] of 0.4611 and a dAMP [1] of -1.695. It also gave a dCMP [1] of -0.02373, a dTDP [1] of -0.6033 and a dTMP [1] of -0.6441. It also gave a dTTP [1] of -0.4211, a dihydroorotate [1] of 4.453 and an orotate [1] of -0.2494. It also gave a DLH [1] of 0.07485, a DLS/SDL/SID [1] of 0.1058 and a PD [1] of 0.3494. The PEE [1] was 0.3362, the PVNF [1] was -0.2122 and the 3-phosphoglycerate [1] was 0.06499. For the same compound, the ADP-D-glucose [1] was 0.1455, the ATP [1] was -0.04037 and the CDP [1] was -0.436. For the same compound, the D-sedoheptulose-1/7-phosphate [1] was -0.1476, the FAD [1] was 0.02917 and the GMP [1] was -0.07998. The “NAD+” value [1] was -0.07608, the “NADP+” value [1] was 0.2106 and the “Octoluse Bisphosphate” value [1] was -0.01707. The Pyroglutamic acid [1] was -0.1892, the UDP-D-glucose [1] was -0.01772 and the UDP-D-glucuronate [1] was -0.05432. It also gave a UDP-N-acetyl-glucosamine [1] of -0.1657, a UDP [1] of -0.847 and a UMP [1] of -0.5062. For the same compound, the UTP [1] was -0.6788, the a-ketoglutarate [1] was -0.3441 and the citrate/isocitrate [1] was -0.1956. The cytidine [1] was -0.05016, the dATP [1] was 0.3608 and the dGMP/AMP [1] was -0.2908. The fumarate [1] was 0.4042, the glucose-1/6-phosphate [1] was -0.3631 and the glycerate [1] was -0.704. It also gave a guanine [1] of -0.05943, a guanosine [1] of 0.2542 and a hypoxanthine [1] of -0.3496. It also gave an indole [1] of -0.1947, an inosine [1] of -0.267 and a 2_3-Diphosphoglyceric acid [1] of 0.06366. For the same compound, the 4-phosphopantothenate [1] was -0.3594, the 6-phospho-D-gluconate [1] was 0.1204 and the FMN [1] was 0.0335. The IMP [1] was -0.08883, the Pyrophosphate [1] was 0.1408 and the Sedoheptoluse bisphosphate [1] was 0.09241. The cyclic-AMP [1] was -0.008887, the glutathione disulfide [1] was 0.04205 and the lactate [1] was -0.4137. The myo-inositol [1] was -0.699, the nicotinate [1] was -0.1654 and the ornithine [1] was 0.2004. The phosphoenolpyruvate [1] was 0.0459, the pyruvate [1] was -0.8143 and the ribose-phosphate [1] was 0.02121. It also gave a sarcosine/alanine [1] of -0.1953, a sn-glycerol-3-phosphate [1] of 0.3928 and a succinate/methylmalonic acid [1] of 0.09915. It also gave a uridine [1] of -0.4544 and a xanthosine [1] of -0.03694.

With CCOC(=O)c1c(C)n(-c2ccc(Cl)cc2)c2ccc(OC(=O)C=Cc3ccccc3)cc12 [MMV666600] the EC50 (P. falciparum) was 216 nM, the Acetyllysine [1] was 0.2658 and the N-acetyl-L-ornithine [1] was 0.3826. For the same compound, the N-carbamoyl-L-aspartate [1] was 0.5043, the NADPH [1] was -0.1791 and the dAMP [1] was 0.1797. It also gave a dCMP [1] of 0.7303, a dTDP [1] of 0.6846 and a dTMP [1] of 0.3563. The dTTP [1] was 0.1062, the dihydroorotate [1] was 0.2265 and the orotate [1] was 0.0746. The DLH [1] was 0.4837, the DLS/SDL/SID [1] was 0.1278 and the PD [1] was 0.2139. The PEE [1] was 0.4962, the PVNF [1] was 0.206 and the 3-phosphoglycerate [1] was 0.1223. For the same compound, the ADP-D-glucose [1] was 0.3003, the ATP [1] was 0.3662 and the CDP [1] was 0.7598. The D-sedoheptulose-1/7-phosphate [1] was 0.476, the FAD [1] was 0.1354 and the GMP [1] was -0.291. The “NAD+” value [1] was 0.8191, the “NADP+” value [1] was 0.2752 and the “Octoluse Bisphosphate” value [1] was 0.3013. It also gave a Pyroglutamic acid [1] of 0.03669, a UDP-D-glucose [1] of 0.1154 and a UDP-D-glucuronate [1] of 0.1408. For the same compound, the UDP-N-acetyl-glucosamine [1] was 0.05839, the UDP [1] was 0.7125 and the UMP [1] was 0.02013. For the same compound, the UTP [1] was 0.206, the a-ketoglutarate [1] was -0.01449 and the citrate/isocitrate [1] was 0.5294. It also gave a cytidine [1] of -0.3168, a dATP [1] of 0.2753 and a dGMP/AMP [1] of 0.4942. For the same compound, the fumarate [1] was 0.3444, the glucose-1/6-phosphate [1] was 0.5114 and the glycerate [1] was 0.0963. The guanine [1] was 0.1348, the guanosine [1] was -0.1252 and the hypoxanthine [1] was 0.2037. For the same compound, the indole [1] was -0.0001746, the inosine [1] was 0.0653 and the 2_3-Diphosphoglyceric acid [1] was 0.1463. It also gave a 4-phosphopantothenate [1] of 0.3013, a 6-phospho-D-gluconate [1] of 0.08781 and an FMN [1] of -0.2862. It also gave an IMP [1] of 0.3406, a Pyrophosphate [1] of 0.1816 and a Sedoheptoluse bisphosphate [1] of 0.1719. The cyclic-AMP [1] was 0.1868, the glutathione disulfide [1] was 0.1725 and the lactate [1] was 0.1409. The myo-inositol [1] was -0.8322, the nicotinate [1] was 0.07374 and the ornithine [1] was 0.01544. It also gave a phosphoenolpyruvate [1] of 0.01685, a pyruvate [1] of -0.07405 and a ribose-phosphate [1] of 0.1875. The sarcosine/alanine [1] was -0.13, the sn-glycerol-3-phosphate [1] was -0.02611 and the succinate/methylmalonic acid [1] was 0.1082. The uridine [1] was 0.1838 and the xanthosine [1] was 0.13.
